The target in the assay is T1, GPR43 (Homo sapiens, UniProt O15552).
T1 construct: expressed in transfected cells
T1 sequence (O15552 1-330): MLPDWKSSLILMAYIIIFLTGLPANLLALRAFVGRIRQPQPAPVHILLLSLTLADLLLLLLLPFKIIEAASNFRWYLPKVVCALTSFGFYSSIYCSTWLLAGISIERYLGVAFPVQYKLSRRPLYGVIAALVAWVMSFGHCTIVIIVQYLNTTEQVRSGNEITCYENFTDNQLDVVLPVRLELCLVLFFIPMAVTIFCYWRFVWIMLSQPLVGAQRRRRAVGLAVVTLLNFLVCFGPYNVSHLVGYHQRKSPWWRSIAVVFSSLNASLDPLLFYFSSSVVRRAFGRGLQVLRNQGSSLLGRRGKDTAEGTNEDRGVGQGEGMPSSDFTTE
As to the kind of experiment: Calcium mobilization assay with probenecid. Type of assay: cell-based. The conditions noted are these: GPR43 stably expressing cells; triggered with sodium acetate at EC80; 2.5 mM probenecid; read-out: GPR43 assay with probenicid IC50. Put shortly:
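[…] being added at rising concentrations to a GPR43 stable line. Before this, cells were dye-loaded (Calcium 4 with 2.5 mM probenecid) for 2 h at 37 °C after overnight plating.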
In general terms: Calcium flux is commonly read through the fluorescence of an indicator in the cells.
Turning to `CC1(C(=O)N(CCCC(=O)O)c2ccc(Cl)nc2)CCN1C(=O)c1csc2ccccc12` (stereo not shown) [Compound 249, 4-(1-(benzo[b]thiophene-3-carbonyl)-N-(6-chloropyridin-3-yl)-2-methylazetidine-2-carboxamido)butanoic acid], the IC50 is above 1000 nM. With `COc1ccc(Cl)c(OC(=O)N2CCC2(C)C(=O)N(CCCC(=O)O)Cc2ccc(Cl)cc2)c1` (stereo not shown) [Compound 215, 4-(1-((2-chloro-5-methoxyphenoxy)carbonyl)-N-(4-chlorobenzyl)-2-methylazetidine-2-carboxamido)butanoic acid], the IC50 is above 1000 nM. The value for `CC1(C(=O)N(CCCC(=O)N2CCOCC2)Cc2ccc(Cl)cc2)CCN1C(=O)c1ccc2sccc2c1` (stereo not shown) [Compound 138, 1-(benzo[b]thiophene-5-carbonyl)-N-(4-chlorobenzyl)-2-methyl-N-(4-morpholino-4-oxobutyl)azetidine-2-carboxamide] was above 1000 nM. Turning to `CC1(C(=O)N(CCCC(N)=O)Cc2ccc(Cl)cc2)CCN1C(=O)Cc1csc2ccccc12` (stereo not shown) [Compound 127, 1-(2-Benzo[b]thiophen-3-yl-acetyl)-2-methyl-azetidine-2-carboxylic acid (3-carbamoyl-propyl)-(4-chloro-benzyl)-amide], the IC50 was above 1000 nM. In the case of `CC1(C(=O)N(CCCC(N)=O)Cc2ccc(Cl)cc2)CCN1C(=O)Cc1coc2ccccc12` (stereo not shown) [Compound 166, 1-(2-Benzofuran-3-yl-acetyl)-2-methyl-azetidine-2-carboxylic acid (3-carbamoyl-propyl)-(4-chloro-benzyl)-amide], the IC50 lay in the range of 101 to 500 nM. As to `CC1(C(=O)N(CCCC(=O)O)Cc2ccc(C(F)(F)F)cc2)CCN1C(=O)c1csc2ccccc12` (stereo not shown) [Compound 145, 4-[[1-(Benzo[b]thiophene-3-carbonyl)-2-methyl-azetidine-2-carbonyl]-(4-trifluoromethyl-benzyl)-amino]-butyric acid], the half-inhibitory concentration (IC50) is 101 to 500 nM. Consider `Cc1cc(C)cc(CC(=O)N2CCC2(C)C(=O)N(CCCC(=O)N(C)C)Cc2ccc(Cl)cc2)c1` (stereo not shown) [Compound 125, 1-[2-(3,5-Dimethyl-phenyl)-acetyl]-2-methyl-azetidine-2-carboxylic acid (4-chloro-benzyl)-(3-dimethylcarbamoyl-propyl)-amide], for which the IC50 was above 1000 nM.

Consider `Cc1cc(C)cc(CC(=O)N2CCC2(C)C(=O)N(CCc2nnc(O)o2)Cc2ccc(Cl)cc2)c1` (stereo not shown) [Compound 119, 1-[2-(3,5-Dimethyl-phenyl)-acetyl]-2-methyl-azetidine-2-carboxylic acid (4-chloro-benzyl)-[2-(5-hydroxy-[1,3,4]oxadiazol-2-yl)-ethyl]-amide], for which the IC50 is above 1000 nM.

`CC1(C(=O)N(CCCC(=O)O)Cc2ccc(Cl)cc2)CCN1C(=O)Oc1ccc(Cl)cc1Cl` (stereo not shown) [Compound 238, 4-(N-(4-chlorobenzyl)-1-((2,4-dichlorophenoxy)carbonyl)-2-methylazetidine-2-carboxamido)butanoic acid]: the IC50 is above 1000 nM.

Take `CC1(C(=O)N(CCC(=O)O)Cc2ccc3cn[nH]c3c2)CCN1C(=O)Cc1csc2ccccc12` (stereo not shown) [Compound 176, 3-[[1-(2-Benzo[b]thiophen-3-yl-acetyl)-2-methyl-azetidine-2-carbonyl]-(1H-indazol-6-ylmethyl)-amino]-propionic acid]: the IC50 lay in the range of 101 to 500 nM.

Turning to `Cc1cc(C)cc(CC(=O)N2CCC2(C)C(=O)N(CCc2cc(O)n(C)n2)Cc2ccc(Cl)cc2)c1` (stereo not shown) [Compound 117, 1-[2-(3,5-Dimethyl-phenyl)-acetyl]-2-methyl-azetidine-2-carboxylic acid (4-chloro-benzyl)-[2-(5-hydroxy-1-methyl-1H-pyrazol-3-yl)-ethyl]-amide], the IC50 is above 1000 nM. As to `COC(=O)CCN(Cc1ccc2cn[nH]c2c1)C(=O)C1(C)CCN1C(=O)Cc1csc2ccccc12` (stereo not shown) [Compound 175, 3-[[1-(2-Benzo[b]thiophen-3-yl-acetyl)-2-methyl-azetidine-2-carbonyl]-(1H-indazol-6-ylmethyl)-amino]-propionic acid methyl ester], the IC50 is 0.01 to 100 nM. Then `Cc1cc(C)cc(CC(=O)N2CCC2(C)C(=O)N(CCc2cc(O)[nH]n2)Cc2ccc(Cl)cc2)c1` (stereo not shown) [Compound 116, 1-[2-(3,5-Dimethyl-phenyl)-acetyl]-2-methyl-azetidine-2-carboxylic acid (4-chloro-benzyl)-[2-(5-hydroxy-1H-pyrazol-3-yl)-ethyl]-amide], with above 1000 nM; and `COC(=O)CCN(Cc1ccc(Cl)cc1)C(=O)C1(C)CCN1C(=O)c1csc2ccccc12` (stereo not shown) [Compound 151, 3-[[1-(Benzo[b]thiophene-3-carbonyl)-2-methyl-azetidine-2-carbonyl]-(4-chloro-benzyl)-amino]-propionic acid methyl ester], with 101 to 500 nM. For `Cc1cc(C)cc(CC(=O)N2CCC2(C)C(=O)N(Cc2ccc(Cl)cc2)Cc2nnn[nH]2)c1` (stereo not shown) [Compound 76, 1-[2-(3,5-Dimethyl-phenyl)-acetyl]-2-methyl-azetidine-2-carboxylic acid (4-chloro-benzyl)-(1H-tetrazol-5-ylmethyl)-amide], the IC50 was above 1000 nM. For the compound `CN(Cc1ccc(Cl)cc1)C(=O)C1(C)CCN1C(=O)Cc1cccc2sccc12` (stereo not shown) [Compound 105, 1-(2-Benzo[b]thiophen-4-yl-acetyl)-2-methyl-azetidine-2-carboxylic acid (4-chloro-benzyl)-methyl-amide], the IC50 is above 1000 nM.

Consider `COc1cccc(CC2(C(=O)N(CCCC(=O)NS(C)(=O)=O)Cc3cccc(Cl)c3)CCN2C(=O)c2csc3ccccc23)c1` (stereo not shown) [Compound 242, 1-(benzo[b]thiophene-3-carbonyl)-N-(3-chlorobenzyl)-2-(3-methoxybenzyl)-N-(4-(methylsulfonamido)-4-oxobutyl)azetidine-2-carboxamide], for which the IC50 was 501 to 1000 nM. The value for `CCC1(C(=O)N(CCCS(N)(=O)=O)c2ccc(Cl)cc2)CCN1C(=O)c1csc2ccccc12` (stereo not shown) [Compound 246, 1-(benzo[b]thiophene-3-carbonyl)-N-(4-chlorophenyl)-2-ethyl-N-(3-sulfamoylpropyl)azetidine-2-carboxamide] was 101 to 500 nM; that for `CC(C)C1(C(=O)N(CCCS(N)(=O)=O)Cc2cccc(Cl)c2)CCN1C(=O)c1csc2ccccc12` (stereo not shown) [Compound 217, 1-(benzo[b]thiophene-3-carbonyl)-N-(3-chlorobenzyl)-2-isopropyl-N-(3-sulfamoylpropyl)azetidine-2-carboxamide] was 101 to 500 nM.

For `Cc1ccccc1OC(=O)N1CCC1(C)C(=O)N(CCCC(=O)O)Cc1ccc(Cl)cc1` (stereo not shown) [Compound 205, 2-[(3-Carboxy-propyl)-(4-chloro-benzyl)-carbamoyl]-2-methyl-azetidine-1-carboxylic acid o-tolyl ester], the concentration for half-maximal inhibition (IC50) is above 1000 nM. In the case of `Cc1cc(C)cc(CC(=O)N2CCC2(C)C(=O)N(CCCN2CCCC2=O)Cc2ccc(Cl)cc2)c1` (stereo not shown) [Compound 149, 1-[2-(3,5-Dimethyl-phenyl)-acetyl]-2-methyl-azetidine-2-carboxylic acid (4-chloro-benzyl)-[3-(2-oxo-pyrrolidin-1-yl)-propyl]-amide], the IC50 was above 1000 nM. For the compound `CS(=O)(=O)NC(=O)CCCN(Cc1cccc(Cl)c1)C(=O)C1(Cc2ccccc2F)CCN1C(=O)c1csc2ccccc12` (stereo not shown) [Compound 243, 1-(benzo[b]thiophene-3-carbonyl)-N-(3-chlorobenzyl)-2-(2-fluorobenzyl)-N-(4-(methylsulfonamido)-4-oxobutyl)azetidine-2-carboxamide], the IC50 lay within 501 to 1000 nM. On to `CNS(=O)(=O)CCN(Cc1ccc(Cl)cc1)C(=O)C1(C)CCN1C(=O)c1csc2ccccc12` (stereo not shown) [Compound 193, 1-(Benzo[b]thiophene-3-carbonyl)-2-methyl-azetidine-2-carboxylic acid (4-chloro-benzyl)-(2-methylsulfamoyl-ethyl)-amide], for which the IC50 was in the range of 101 to 500 nM. Consider `CNS(=O)(=O)CCCN(Cc1cccc(Cl)c1)C(=O)C1(C)CCN1C(=O)c1csc2ccccc12` (stereo not shown) [Compound 190, 1-(Benzo[b]thiophene-3-carbonyl)-2-methyl-azetidine-2-carboxylic acid (3-chloro-benzyl)-(3-methylsulfamoyl-propyl)-amide], for which the IC50 is 0.01 to 100 nM. With `Cc1cc(C)cc(CC(=O)N2CCC2(C)C(=O)N(CCCC(=O)O)Cc2ccc(C(F)(F)F)cc2)c1` (stereo not shown) [Compound 159, 4-[{1-[2-(3,5-Dimethyl-phenyl)-acetyl]-2-methyl-azetidine-2-carbonyl}-(4-trifluoromethyl-benzyl)-amino]-butyric acid], the IC50 fell in the range of 501 to 1000 nM. The value for `CN(Cc1ccc(Cl)cc1)C(=O)C1(C)CCN1C(=O)Cc1cc2ccccc2s1` (stereo not shown) [Compound 108, 1-(2-Benzo[b]thiophen-2-yl-acetyl)-2-methyl-azetidine-2-carboxylic acid (4-chloro-benzyl)-methyl-amide] was above 1000 nM; that for `CS(=O)(=O)NC(=O)CCCN(Cc1cccc(Cl)c1)C(=O)C1(Cc2ccccc2)CCN1C(=O)c1csc2ccccc12` (stereo not shown) [Compound 230, 1-(benzo[b]thiophene-3-carbonyl)-2-benzyl-N-(3-chlorobenzyl)-N-(4-(methylsulfonamido)-4-oxobutyl)azetidine-2-carboxamide] was 101 to 500 nM. Consider `Cc1cc(C)cc(CC(=O)N2CCC2(C)C(=O)N(CCCC(=O)O)Cc2ccc3scnc3c2)c1` (stereo not shown) [Compound 185, 4-(Benzothiazol-5-ylmethyl-{1-[2-(3,5-dimethyl-phenyl)-acetyl]-2-methyl-azetidine-2-carbonyl}-amino)-butyric acid], for which the IC50 is 501 to 1000 nM.

As usually defined, the IC50 is the midpoint of a concentration-inhibition curve.

The values above are taken from patent US8759334B2, “Compounds useful for the treatment of metabolic and inflammatory diseases” (Galapagos NV, priority 2011, dated 2014).
